The values below come from publication PMC8401257, “Serjanic Acid Glycosides from Chenopodium hybridum L. with Good Cytotoxicity and Selectivity Profile against Several Panels of Human Cancer Cell Lines” (Molecules, 2021).

Molecules are shown by their SMILES.

Series [1] has as its system Nthy-ori 3–1. The experiment in a line: LDH cytotoxicity assay, thyroid follicular epithelial cells Nthy-ori 3–1. Conditions: Homo sapiens. It is filed as cell-based. The source says:
(§1) Human cancer and the corresponding normal cell lines, used in the study, were grouped as follows: skin panel (melanoma HTB140, derived from metastatic site: lymph node, ATCC Hs 294T; malignant melanoma A375, ATCC CRL-1619; stage I primary melanoma WM793, RRID:CVCL 8787; skin keratinocytes HaCaT), prostate panel (prostate carcinoma Du145, derived from metastatic site: brain, ATCC HTB-81; grade IV prostate carcinoma, PC3, derived from metastatic site: bone, ATCC CRL-1435; prostate epithelial cells PNT2, ECACC 95012613), gastrointestinal panel (colorectal adenocarcinomas Caco2, ATCC HTB-37, and HT29, ATCC HTB-38; hepatocellular carcinoma HepG2, ATCC HB-8065), thyroid panel (follicular thyroid carcinoma FTC133, ECACC 94060901; undifferentiated thyroid carcinoma 8505C, ECACC 94090184; Nthy-ori 3–1, human thyroid follicular epithelial cells, ECACC 90011609), lung carcinoma A549 cells (ATCC CRM-CCL-185). Cells were grown at standard conditions (37 °C, 5% CO2, relative humidity) and culture media (DMEM/F12 for PNT2, WM 793, HT29, PC3, FTC133, 8505C, A549; DMEM Low Glucose for DU145; DMEM High Glucose for HTB140, A375, HaCaT; MEM with NEAA for Caco2), supplemented with 10% fetal bovine serum (FBS) and 1% antibiotics solution (10 000 U penicillin and 10 mg streptomycin/mL). All culture media and supplements were from Sigma-Aldrich.
(§2) Cell viability was measured with the lactate dehydrogenase (LDH) assay (Clontech, Mountain View, CA, USA), as described previously. Before the experiment, cells were seeded onto 96-well plates for 24 h (1.5 × 10^4 cells/well). The culture medium was replaced with a fresh medium containing different concentrations of the tested extracts (10–100 μg/mL, in DMSO) and incubated for 24 and 48 h. The absorbance was measured at 490 nm using a Biotek Synergy microplate reader. Cell viability was expressed as percent of the dead cells and IC50 values were also calculated. Each experiment was done in triplicate.
(§3) Data were analyzed using Statistica v. 13.3 (Stat Soft, TIBCO, Palo Alto, CA, USA). Each variable was expressed as mean (± SD). The statistical significance in cytotoxic assay was determined using Mann–Whitney U test. The value p < 0.05 was considered to indicate significant differences. NMR Spectra were analyzed using ACD/Labs ^1D NMR Processor 12.0 (Academic Edition) and JEOL DELTA v 5.3.1 (Jeol Resonance Inc., JEOL, Tokyo, Japan). In MS analysis MassLynx V 4.1 (Waters, Milford, MA, USA) and Compass DataAnalysis (Bruker, Billerica, MA, USA) software were used. IC50 values in cytotoxic assay were calculated using Origin Pro 2020b (OriginLab Corporation, Northampton, MA, USA).

In series [2] the test system is Caco-2. Nature of the series: LDH cytotoxicity assay, colorectal adenocarcinoma Caco-2. The series is classed as cell-based. Conditions: Homo sapiens.
Excerpt: as §1, §2, §3

In series [3] the test system is HTB-140. Nature of the series: LDH cytotoxicity assay, melanoma HTB-140. It is filed as cell-based. To be noted: Homo sapiens.
Excerpt: as §1, §2, §3

The subject of series [4] is PNT2. Nature of the series: LDH cytotoxicity assay, normal prostate epithelial PNT2. It is filed as cell-based. To be noted: Homo sapiens.
Excerpt: as §1, §2, §3

Series [5] deals with A549. Nature of the series: LDH cytotoxicity assay, lung carcinoma A549. The series is classed as cell-based. To be noted: Homo sapiens.
Excerpt: as §1, §2, §3

For series [6], the system named is PC3. The experiment in a line: LDH cytotoxicity assay, prostate carcinoma PC3. It is filed as cell-based. Conditions: Homo sapiens.
Excerpt: as §1, §2, §3

Series [7] concerns A375. Nature of the series: LDH cytotoxicity assay, malignant melanoma A375. The series is classed as cell-based. To be noted: Homo sapiens.
Excerpt: as §1, §2, §3

Series [8] relates to DU-145. Nature of the series: LDH cytotoxicity assay, prostate carcinoma DU-145. Conditions: Homo sapiens. It is filed as cell-based.
Excerpt: as §1, §2, §3

For series [9], the system named is FTC133. The experiment in a line: LDH cytotoxicity assay, follicular thyroid carcinoma FTC133. The series is classed as cell-based. Conditions: Homo sapiens.
Excerpt: as §1, §2, §3

For series [10], the system named is HeLa cells. More on the design: method as in doi:10.1007/s11101-009-9121-0. To be noted: cited from earlier work.
The subject of series [11] is WM793. Nature of the series: LDH cytotoxicity assay, primary melanoma WM793. The series is classed as cell-based. Conditions: Homo sapiens.
Excerpt: as §1, §2, §3

Series [12] has as its system HT29. The experiment in a line: LDH cytotoxicity assay, colorectal adenocarcinoma HT29. Conditions: Homo sapiens. It is filed as cell-based.
Excerpt: as §1, §2, §3

The test system of series [13] is 8505C. Nature of the series: LDH cytotoxicity assay, undifferentiated thyroid carcinoma 8505C. The series is classed as cell-based. To be noted: Homo sapiens.
Excerpt: as §1, §2, §3

Series [14] deals with HepG2. Nature of the series: LDH cytotoxicity assay, hepatocellular carcinoma HepG2. It is filed as cell-based. To be noted: Homo sapiens.
Excerpt: as §1, §2, §3

Series [15] relates to HaCaT. Nature of the series: LDH cytotoxicity assay, skin keratinocytes HaCaT. Conditions: Homo sapiens. The series is classed as cell-based.
Excerpt: as §1, §2, §3

Turning to `COC(=O)[C@@]1(C)CC[C@]2(C(=O)O[C@@H]3O[C@H](CO)[C@@H](O)[C@H](O)[C@H]3O)CC[C@]3(C)C(=CC[C@@H]4[C@@]5(C)CC[C@H](O[C@@H]6OC[C@H](O)[C@H](O)[C@H]6O)C(C)(C)[C@@H]5CC[C@]43C)[C@@H]2C1` [Compound 2, 3-O-α-L-Arabinopyranosyl Serjanic Acid 28-O-β-D-Glucopyranosyl Ester], the IC50 is greater than 100 µg/mL in [1] (Nthy-ori 3–1, 24 h); greater than 100 µg/mL in series [1] (Nthy-ori 3–1, 48 h); 20.7 µg/mL in series [2] (Caco-2, 24 h); 12.6 µg/mL in [2] (Caco-2, 48 h); 39.2 µg/mL in series [3] (HTB-140, 24 h); 25.1 µg/mL in [3] (HTB-140, 48 h). For the same molecule, the IC50 is greater than 100 µg/mL in series [4] (PNT2, 24 h); greater than 100 µg/mL in series [4] (PNT2, 48 h); 41.7 µg/mL in series [5] (A549, 24 h); 28.3 µg/mL in series [5] (A549, 48 h); 23.8 µg/mL in series [6] (PC-3, PC3, 24 h); 18.3 µg/mL in series [6] (PC-3, PC3, 48 h). Further, the IC50 in series [7] (A-375, A375, 24 h) is 39.4 µg/mL; in [7] (A-375, A375, 48 h), 29.3 µg/mL; in series [8] (DU-145, 24 h), 33.1 µg/mL; in series [8] (DU-145, 48 h), 23.5 µg/mL; in [9] (FTC-133, FTC133, 24 h), greater than 100 µg/mL; in series [9] (FTC-133, FTC133, 48 h) it was greater than 100 µg/mL. Besides, the concentration for half-maximal inhibition (IC50) is 32.2 µg/mL in series [11] (WM793, 24 h); 16.8 µg/mL in [11] (WM793, 48 h); 10.7 µg/mL in series [12] (HT-29, HT29, 24 h); 6.48 µg/mL in series [12] (HT-29, HT29, 48 h); greater than 100 µg/mL in series [13] (24 h); greater than 100 µg/mL in series [13] (48 h). The IC50 in series [14] (HepG2, 24 h) was 54.2 µg/mL; in series [14] (HepG2, 48 h) it was 39 µg/mL; in series [15] (24 h), greater than 100 µg/mL; in series [15] (48 h), greater than 100 µg/mL. The “cytotoxicity towards HeLa cells” value in series [10] was “inactive”.

Consider `COC(=O)[C@@]1(C)CC[C@]2(C(=O)O[C@@H]3O[C@H](CO)[C@@H](O)[C@H](O)[C@H]3O)CC[C@]3(C)C(=CC[C@@H]4[C@@]5(C)CC[C@H](O[C@@H]6OC[C@H](O)[C@H](O)[C@H]6O[C@@H]6O[C@@H](C)[C@H](O)[C@@H](O)[C@H]6O)C(C)(C)[C@@H]5CC[C@]43C)[C@@H]2C1` [Compound 1, 3-O-α-L-Rhamnopyranosyl-(1→2)-α-L-Arabinopyranosyl Serjanic Acid 28-O-β-D-Glucopyranosyl Ester], for which the IC50 is greater than 100 µg/mL in series [1] (Nthy-ori 3–1, 24 h); greater than 100 µg/mL in series [1] (Nthy-ori 3–1, 48 h); 28.7 µg/mL in [2] (Caco-2, 24 h); 15.3 µg/mL in series [2] (Caco-2, 48 h); 11.7 µg/mL in series [3] (HTB-140, 24 h); 7.95 µg/mL in series [3] (HTB-140, 48 h). The IC50 was greater than 100 µg/mL in [4] (PNT2, 24 h); greater than 100 µg/mL in [4] (PNT2, 48 h); 61.3 µg/mL in series [5] (A549, 24 h); 34.7 µg/mL in [5] (A549, 48 h); 34.3 µg/mL in series [6] (PC-3, PC3, 24 h); 19.5 µg/mL in [6] (PC-3, PC3, 48 h). The IC50 was 32.4 µg/mL in series [7] (A-375, A375, 24 h); 20.3 µg/mL in series [7] (A-375, A375, 48 h); 16.6 µg/mL in series [8] (DU-145, 24 h); 7.25 µg/mL in series [8] (DU-145, 48 h); greater than 100 µg/mL in [9] (FTC-133, FTC133, 24 h); 76.3 µg/mL in series [9] (FTC-133, FTC133, 48 h). Also, the IC50 in series [11] (WM793, 24 h) was 17.2 µg/mL; in [11] (WM793, 48 h) it was 9.92 µg/mL; in [12] (HT-29, HT29, 24 h), 57.9 µg/mL; in series [12] (HT-29, HT29, 48 h), 22.8 µg/mL; in [13] (24 h), greater than 100 µg/mL; in [13] (48 h), greater than 100 µg/mL. Also, the IC50 was greater than 100 µg/mL in [14] (HepG2, 24 h); 76.6 µg/mL in series [14] (HepG2, 48 h); greater than 100 µg/mL in [15] (24 h); greater than 100 µg/mL in [15] (48 h).

For the molecule `COc1cccc2c1C(=O)c1c(O)c3c(c(O)c1C2=O)C[C@@](O)(C(=O)CO)C[C@@H]3O[C@H]1C[C@H](N)[C@H](O)[C@H](C)O1` [Doxorubicin, reference compound], the IC50 in series [2] (Caco-2, 24 h) was 3.44 µg/mL; in series [3] (HTB-140, 24 h) it was 5.71 µg/mL; in [4] (PNT2, 24 h), 1.38 µg/mL; in [5] (A549, 24 h), 1.73 µg/mL; in series [6] (PC-3, PC3, 24 h), greater than 50 µg/mL; in series [7] (A-375, A375, 24 h) it was 0.59 µg/mL. In addition, the IC50 in series [8] (DU-145, 24 h) is 3.18 µg/mL; in series [9] (FTC-133, FTC133, 24 h) it was 4.02 µg/mL; in [11] (WM793, 24 h) it was greater than 40 µg/mL; in series [12] (HT-29, HT29, 24 h), 1.53 µg/mL; in series [13] (24 h), greater than 40 µg/mL; in series [14] (HepG2, 24 h), 1.03 µg/mL. In [15] (24 h), the IC50 is 4.68 µg/mL.

By IC50 is commonly meant the concentration at which inhibition is half-maximal.
